{"source": "paper PMC12419465", "about": "“Photoresponsive molecular tweezers modulate Taspase 1 activity” (RSC Chemical Biology, 2025)", "key": {"[1]": {"assay": "Photoisomerization: photostationary states by 1H NMR, switching cycles by UV-vis", "assay_type": "physicochemical", "experimental": "Tweezer constructs were synthesized as an E/Z mixture, with a strong preference for the thermodynamically stable E isomer. For photoisomerization, UV-vis spectra of TWAAP and TWAB (50 μM in water) were recorded in their initial state. The constructs were then isomerized to the Z isomer with UV light (λ = 365 nm, 1 min) and back to the E isomer with green light (λ = 520 nm, 5 min). Two light sources were used: UV LED HighPower-LED with 3 W of λ = 365 nm (LED Engin Inc., San Jose, California, US) and a LSC-G HighPower-LED with 3 W of λ = 520 nm (Cree Inc., Durham, North Carolina, US). UV-vis spectroscopy was routinely employed to analyze the tweezer constructs, serving as the method of choice to monitor configurational integrity after multiple switching cycles. More than 10 switching cycles were performed without any loss of configurational integrity. The UV-vis spectra were recorded with a JASCO V-650 double-beam spectrophotometer (JASCO).\nThe photophysical properties of AAP tweezers TWAAP0-4 as well as those of AZO tweezers TWAB1-2 were consistent with previous reports on these photoswitches. […] The two isomers are easily distinguished by the significant difference in their absorption bands (Fig. 2 and Fig. S4a, b). […] Irradiation with green light further increases the concentration of the E isomer, as confirmed by both UV/vis and NMR spectra. The switching process can be repeated for over 10 cycles without loss of configurational integrity or photodegradation of the tweezer. […] (Fig. 2 and Table S1).\nSupplementary Table S1. Photostationary states (PSSE→Z and PSSZ→E) and half-life of Z isomers of\nrespectively. n.d., not determinable.\nTW construct PSSE→Z [%] PSSZ→E [%] […]"}, "[2]": {"target": "T1, wildtype Taspase 1 (Homo sapiens, UniProt Q9H6P5)", "T1 sequence (Q9H6P5 1-233 limits assumed)": "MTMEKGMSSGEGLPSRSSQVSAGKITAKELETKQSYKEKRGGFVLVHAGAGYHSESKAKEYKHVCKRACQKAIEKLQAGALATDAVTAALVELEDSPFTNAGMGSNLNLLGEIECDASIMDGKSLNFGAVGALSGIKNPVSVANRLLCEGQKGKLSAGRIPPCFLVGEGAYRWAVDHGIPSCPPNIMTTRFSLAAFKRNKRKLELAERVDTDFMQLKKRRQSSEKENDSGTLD", "T1 sequence (Q9H6P5 234-420 limits assumed)": "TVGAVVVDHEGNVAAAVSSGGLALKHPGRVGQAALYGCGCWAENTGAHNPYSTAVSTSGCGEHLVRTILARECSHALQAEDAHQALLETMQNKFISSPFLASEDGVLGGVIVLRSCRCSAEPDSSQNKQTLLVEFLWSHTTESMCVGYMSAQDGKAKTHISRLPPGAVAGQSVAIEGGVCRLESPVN", "assay": "Recombinant cleavage assay with GST-MLL2700–2850-GFP-His substrate", "assay_type": "biochemical", "settings": "for pIC50: ligand conc. 10 - 100 µM, 200 nM Taspase 1, 5 µM substrate, n = 3, read-out: IC50 TW (recombinant cleavage, full-length protein)", "experimental": "The recombinant cleavage assay employing the recombinant fusion protein GST-MLL2700–2850-GFP-His, which contains the CS2 cleavage site of the Mixed-lineage leukemia (MLL) protein as a substrate for Taspase 1, was performed as described.[9,10]\nGiven that Taspase 1's active site is positioned directly at the base of the loop harboring the bipartite NLS (Fig. 1A, and Fig. S1), it is reasonable to expect that our photoswitchable tweezer constructs, which recognize this signal, might also influence proteolytic activity - similar to the inhibition observed with our “first-generation” multivalent ligands.[10] In principle the presence of a sterically demanding artificial ligand may hinder or even completely block substrate binding and subsequent cleavage. To assess this, we employed a well-established in vitro cleavage assay using a recombinant, truncated fusion protein harboring the second cleavage site (CS2) of the Mixed Lineage Leukemia 1 (MLL1) protein, a bona fide Taspase 1 substrate.[39] In this assay, the cleaved and uncleaved substrate fractions of the GST-MLL2700–2850-GFP-His substrate were separated on a Coomassie-stained gel, and signal intensities of the different cleavage bands were quantified (Fig. 7, Fig. S8, and Fig. S9). The addition of recombinant, proteolytically active Taspase 1 (200 nM) led to efficient substrate cleavage, which was inhibited by all photoswitchable tweezer constructs in a concentration-dependent manner. IC50 values for the full series of switchable tweezer constructs ranged from 20 to 50 μM, with measurements taken separately for both E and Z isomers Fig. (S9).\nFig. 7 Switchable tweezer constructs interfere with Taspase 1 proteolytic activity. Cleavage assay utilizing the cleavage site CS2 from the natural substrate MLL (GST-MLL2700–2850-GFP-His) and active wildtype Taspase 1. Inhibition of proteolysis was evaluated by the relative amount of uncleaved substrate. Briefly, 5 μM recombinant substrate were incubated with 200 nM wildtype Taspase 1-His and increasing concentrations of TWAAP0-4 (10 - 100 μM), pre-irradiated with either UV light (365 nm, violet), or green light (520 nm, green), or solvent only. Proteolytic activity in solvent-treated samples was set to 100%, and data from TWAAP-treated samples were normalized accordingly. IC50 values were determined by densitometric quantification of the cleavage bands from the gels shown in Fig. S9, followed by nonlinear curve fitting. These values were also used to generate the summary bar plots shown on the right. Data are shown as the mean ± SD from three independent experiments. Composed with https://BioRender.com.\nFigure S8. Photoswitchable TWAAP constructs interfere with Taspase 1’s proteolytic activity.\nCleavage assay utilizing the cleavage site CS2 from the natural substrate MLL (GST -MLL2700-2850-GFP-His, 70 kDa) and active wildtype Taspase 1. Inhibition of proteolysis was evaluated by the relative amount of uncleaved in relation to cleaved substrate (50 kDa and 20 kDa, respectively). Briefly, 5 µM recombinant substrate were incubated with 200 nM wildtype Taspase 1-His and increasing concentrations (10 - 100 µM) of indicated TWAAP irradiated with UV (365 nm, left gel panels) or green light (520 nm, right gel panels). Solvent-treated samples (referred to as untreated, un.) served as reference, and as additional controls, Taspase 1 (-T) was omitted or only Taspase 1 (TASP1) was applied. Representative images of three independent experiments are shown. Composed with […]\nFigure S9. Photoswitchable TWAAB constructs interfere with Taspase 1’s proteolytic activity. Cleavage assay utilizing the cleavage site CS2 from the natural substrate MLL (GST -MLL2700-2850-GFP-His, 70 kDa) and active wildtype Taspase 1. Inhibition of proteolysis was evaluated by the relative amount of uncleaved in relation to cleaved substrate (50 kDa and 20 kDa, respectively).\nBriefly, 5 µM recombinant substrate were incubated with 200 nM wildtype Taspase 1-His and […]"}}, "note": "pIC50: −log10 of the molar value. Read-outs that look alike come from different tables or passages of the source."}
{"smiles": "O=P(O)(O)Oc1c2c(c(OP(=O)(O)OCCn3cc(COCc4ccc(N=Nc5ccc(COCc6cn(CCOP(=O)(O)Oc7c8c(c(OP(=O)(O)O)c9c7C7CC9c9cc%10c(cc97)C7CC%10c9ccccc97)C7CC8c8cc9c(cc87)C7CC9c8ccccc87)nn6)cc5)cc4)nn3)c3c1C1CC3c3cc4c(cc31)C1CC4c3ccccc31)C1CC2c2cc3c(cc21)C1CC3c2ccccc21", "note": "[TWAB2]", "values": [{"measurement": "PSS E→Z, photostationary state", "setting": "[1]; UV 365 nm", "value": 59, "unit": "%"}, {"measurement": "PSS Z→E, photostationary state", "setting": "[1]; green light 520 nm", "value": 56, "unit": "%"}, {"measurement": "pIC50", "setting": "[2]; E isomer", "value": 4.65}, {"measurement": "pIC50", "setting": "[2]; Z isomer", "value": 4.60}, {"measurement": "Difference in inhibitory activity between E and Z isomers (times greater potency of E isomer)", "setting": "[2]; particularly at 50 μM", "value": "no difference"}]}
